# Tests used:
# [1] = tested on: rat brain PKC; experiment: PepTag non-radioactive PKC kinase activity assay; conditions: FIG. 1; TPA 100-0.01 ng/ml; ether extract final dilution 1 in 5; aqueous layer and crude sap diluted 1/25
# Procedure: The kinase activity of rat brain PKC (Promega) was determined using the Peptag™ Non-Radioactive Protein Kinase Kit (Promega). Using agarose gel electrophoresis the technique visualises the opposing electrostatic charge of a fluorescently labeled peptide ([sequence]) compared to the phosphorylated version of the same peptide.
# The reaction mixture was separated by gel electrophoresis, showing migration of the unreacted substrate (a) to the anode (top), and the product (b), which is more negatively charged because of phosphorylation by PKC, moving towards the cathode (bottom).
# [2] = target: T1, PKCγ (Homo sapiens, UniProt P05129); experiment: EGFP-PKC isoform translocation in HeLa cells; format: cell-based
# T1 construct: host or cells: HeLa cells
# Procedure: (§1) Five EGFP-PKC isoforms (Clontech) were available for this experiment, enabling the screening of the three predominant PKC families (i.e. classical, novel and atypical PKCs). The members of the various PKC families are α, β, and γ (classical), θ (novel) and ζ (atypical).
# (§2) HeLa cells were plated out in a 24-well plate containing coverslips and transfected with PKC isoforms fused to EGFP, using a commercially available effectine-transfection kit (QIAGEN, Pty. Ltd.). Cells were exposed to the transfection reagents for 16-24 hr. Subsequently, transfected cells were treated for one hour with TPA (100 ng/mL), bryostatin-1 (5 pg/mL), PEP003 (2.25 μg/mL; 5 μM) or PEP005 ([…]) 1.5 μM). Following treatment, cells were fixed on coverslips and mounted on glass slides. The slides were subsequently examined visually by fluorescence microscopy, photographed, and over 150 cells were counted/treatment/PKC isoform. Counted cells were classified according to the localisation of the PKC-EGFP fluorescence as either cytoplasmic or plasma membrane using ImagePro™ 4.1 (FIG. 5). […] The number of these cells was also counted. Results are presented as an average and standard deviation of percentages of cells (Table 1).
# [3] = target: T2, PKCθ (Homo sapiens, UniProt Q04759); experiment: EGFP-PKC isoform translocation in HeLa cells; format: cell-based; conditions: one hour, TPA 100 ng/mL, bryostatin-1 5 pg/mL, PEP003 2.25 μg/mL (5 μM), PEP005 670 μg/mL (1.5 μM)
# T2 construct: host or cells: HeLa cells
# T2 sequence (Q04759 whole entry, canonical isoform): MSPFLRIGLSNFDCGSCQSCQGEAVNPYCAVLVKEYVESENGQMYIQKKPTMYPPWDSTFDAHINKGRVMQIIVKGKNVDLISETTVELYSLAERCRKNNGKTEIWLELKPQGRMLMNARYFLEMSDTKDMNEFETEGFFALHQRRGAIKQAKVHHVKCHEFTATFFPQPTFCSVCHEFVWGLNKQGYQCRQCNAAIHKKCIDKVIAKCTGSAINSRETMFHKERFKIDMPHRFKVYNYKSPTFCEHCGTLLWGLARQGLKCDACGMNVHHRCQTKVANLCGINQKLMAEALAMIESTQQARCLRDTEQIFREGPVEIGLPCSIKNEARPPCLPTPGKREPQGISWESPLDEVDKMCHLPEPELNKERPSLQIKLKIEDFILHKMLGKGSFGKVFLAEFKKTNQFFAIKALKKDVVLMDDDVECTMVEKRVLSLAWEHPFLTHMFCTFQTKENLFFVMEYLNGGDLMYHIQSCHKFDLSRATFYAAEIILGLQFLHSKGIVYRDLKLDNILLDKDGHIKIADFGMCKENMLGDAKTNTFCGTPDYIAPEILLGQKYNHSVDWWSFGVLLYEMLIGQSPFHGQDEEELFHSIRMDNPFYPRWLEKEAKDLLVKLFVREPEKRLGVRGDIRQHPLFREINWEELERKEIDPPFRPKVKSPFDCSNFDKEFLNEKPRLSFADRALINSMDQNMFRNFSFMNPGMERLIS
# Procedure: as §1, §2
# [4] = target: T3, PKCζ (Homo sapiens, UniProt Q05513); experiment: EGFP-PKC isoform translocation in HeLa cells; format: cell-based; conditions: one hour, TPA 100 ng/mL, bryostatin-1 5 pg/mL, PEP003 2.25 μg/mL (5 μM), PEP005 670 μg/mL (1.5 μM)
# T3 construct: host or cells: HeLa cells
# T3 sequence (Q05513 1-592): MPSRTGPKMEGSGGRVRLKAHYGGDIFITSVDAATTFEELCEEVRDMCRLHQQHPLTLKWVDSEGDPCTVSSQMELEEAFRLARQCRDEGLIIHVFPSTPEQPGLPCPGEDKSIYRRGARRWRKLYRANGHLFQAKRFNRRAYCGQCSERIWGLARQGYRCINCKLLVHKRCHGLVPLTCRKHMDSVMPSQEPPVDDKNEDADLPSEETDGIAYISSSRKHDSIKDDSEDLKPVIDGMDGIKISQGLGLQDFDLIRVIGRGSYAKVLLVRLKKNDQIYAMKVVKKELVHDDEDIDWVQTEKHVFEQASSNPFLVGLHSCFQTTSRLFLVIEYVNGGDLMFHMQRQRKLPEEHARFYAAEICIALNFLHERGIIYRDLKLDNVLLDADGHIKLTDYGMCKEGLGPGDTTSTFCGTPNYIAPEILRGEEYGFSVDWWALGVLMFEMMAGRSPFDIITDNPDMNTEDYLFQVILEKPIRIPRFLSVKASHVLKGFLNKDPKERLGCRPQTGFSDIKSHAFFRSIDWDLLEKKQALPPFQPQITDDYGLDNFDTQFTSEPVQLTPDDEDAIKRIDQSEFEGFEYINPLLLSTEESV
# Procedure: as §1, §2
# [5] = target: T4, PKCβ (Homo sapiens, UniProt P05771); experiment: EGFP-PKC isoform translocation in HeLa cells; format: cell-based
# T4 construct: host or cells: HeLa cells
# T4 sequence (P05771 whole entry, species assumed, canonical isoform): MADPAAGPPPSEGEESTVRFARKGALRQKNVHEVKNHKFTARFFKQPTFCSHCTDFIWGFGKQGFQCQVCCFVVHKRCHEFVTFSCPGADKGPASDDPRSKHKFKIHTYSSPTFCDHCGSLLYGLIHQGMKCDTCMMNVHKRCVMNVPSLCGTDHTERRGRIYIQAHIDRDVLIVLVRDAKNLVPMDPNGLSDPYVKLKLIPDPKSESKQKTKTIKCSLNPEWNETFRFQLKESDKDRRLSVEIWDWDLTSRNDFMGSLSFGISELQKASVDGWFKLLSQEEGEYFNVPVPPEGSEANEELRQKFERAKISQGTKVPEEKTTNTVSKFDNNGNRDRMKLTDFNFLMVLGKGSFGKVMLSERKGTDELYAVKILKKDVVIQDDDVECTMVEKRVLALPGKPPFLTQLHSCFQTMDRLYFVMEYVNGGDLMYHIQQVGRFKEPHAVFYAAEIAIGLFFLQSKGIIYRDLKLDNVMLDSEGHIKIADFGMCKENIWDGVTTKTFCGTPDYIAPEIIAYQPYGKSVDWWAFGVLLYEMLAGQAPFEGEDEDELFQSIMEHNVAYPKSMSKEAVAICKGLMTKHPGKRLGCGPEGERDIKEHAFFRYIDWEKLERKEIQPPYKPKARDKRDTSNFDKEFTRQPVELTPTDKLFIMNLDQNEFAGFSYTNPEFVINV
# Procedure: as §1, §2
# [6] = target: T5, PKCα (Homo sapiens, UniProt P17252); format: cell-based; conditions: HeLa
# T5 construct: host or cells: HeLa cells
# Procedure: as §1
# as §2, with “counted.” for “counted. Results are presented as an average and standard deviation of percentages of cells (Table 1).”
# [7] = tested on: HIV-strain pNL4-3; experiment: HIV-1 replication in acutely infected PBMC (CA-p24 ELISA); format: cell-based
# Procedure: Experiments were conducted to assess the effect of the compounds of the instant invention on HIV-1 replication in acutely infected T cells. Peripheral blood mononuclear cells (PBMC) were obtained from non-HIV-1, non-HIV-2, non-Hepatitis B/C infected donors, stimulated with phytohemagglutinin-M and grown in culture media supplemented with 10 U/mL interleukin-2. The activated PBMC were infected with […] (Low Titre) and 100 ng (High Titre) of CA-p24 equivalents of the HIV-strain pNL4-3. Cells were infected for two hr after which, the virus was removed and the cells were washed with culture media. Equivalent numbers of cells were seeded into 24 well plates and compounds were added to the cultured cells that included: TPA at 8 riM and 80 nM, Ingenol at 280 nM, PEP003 at 500 nM, 50 nM and 5 nM, or PEP004 at dilutions of 1×10^4 and 1×10^5 from the stock (final concentrations). In addition, uninfected activated PBMC were grown in the presence of TPA (80 nM), Ingenol (280 nM), PEP003 (500 nM) and PEP004 (1×10^4 dilution). Other cultures were neither infected nor treated with any compound, or infected but not treated with any compound. Supernatant was removed from each culture at day 0, 3, 7, and 10. The amount of HIV-1 CA-p24 was determined using a commercially available ELISA assay. Three independent experiments were performed.
# [8] = one hour, TPA 100 ng/mL, bryostatin-1 5 pg/mL, PEP003 2.25 μg/mL (5 μM), PEP005 670 μg/mL (1.5 μM)
structure (smiles),measurement,setting,value
"CCCCCCCCCCCCCC(=O)O[C@@H]1[C@@H](C)[C@@]2(O)[C@@H](C=C(CO)C[C@]3(O)C(=O)C(C)=C[C@@H]23)C2C(C)(C)[C@@]21OC(C)=O (single isomer, unassigned) [TPA]",activation of PKC (phosphorylation of fluorescent PepTag substrate),[1],showed activation of PKC
same,number of PKCγ transfected cells displaying Golgi-like fluorescence,[2]; one hour treatment,increase in the number of cells displaying Golgi-like fluorescence
same,translocation of PKCγ to the plasma membrane,[2]; [8],translocated from the cytoplasm to the plasma membrane
same,translocation of PKCθ,[3],translocated
same,translocation of PKCζ,[4],fail to induce translocation
same,number of PKCβ transfected cells with Golgi-like fluorescence,[5]; one hour treatment,increase in Golgi-Tike fluorescence
same,translocation of PKCβ to the plasma membrane,[5]; [8],translocated from the cytoplasm to the plasma membrane
same,number of PKCα transfected cells displaying Golgi-like fluorescence,[6]; one hour treatment,increase in the number of cells displaying Golgi-like fluorescence
same,translocation of PKCα to the plasma membrane,"[6]; one hour, TPA 100 ng/mL, bryostatin-1 5 pg/mL, PEP003 2.25 μg/mL (5 μM)",translocated from the cytoplasm to the plasma membrane
same,reduction of HIV-1 replication rate,[7]; 8 nM,~38%
same,reduction of HIV-1 replication rate,[7]; 80 nM,~98%
